Entries after “also recorded” stand apart in the source; their conditions may differ.
What was measured:
Type in all cases: physicochemical
[1] = Chelation test with Lanthanum (III) (HPLC, LCMS); conditions: La(NO3)3, room temperature
Experimental: HPLC method: XBridge C18 3.5 μm 150×4.6 mm, 100 Å column; Mobile phase A: 0.1% TFA in H2O, B: 0.1% TFA in ACN; gradient 10% to 30% B in 0-20 min, gradient 30% to 100% B in 20-20.1 min, isocratic at 100% B in 20.1-25 min, gradient 100% to 10% B in 25-25.1 min, isocratic at 10% B in 25.1-30 min; postrun 3 min; flow rate 1 mL/min; column temperature 30° C.; injection volume 5 uL. Synthesis and Characterization of H2bp18c6-Benzyl-Phenyl
An aqueous solution of H2bp18c6-benzyl-isopentyl in water (˜3 mg/mL=˜5 mM, 20 μL, 0.1 μmol) was treated with La(NO3)3 (10 mM in metal free water, 50 μL, 0.5 μmol). An aqueous solution of H2bp18c6-benzyl-phenyl in water (˜3 mg/mL=˜5 mM, 20 μL, 0.1 μmol) was treated with La(NO3)3 (10 mM in metal free water, 50 μL, 0.5 μmol). After thorough mixing, each solution was analyzed by LCMS and HPLC to determine whether complexes of the chelator and La^3+ formed.
Complex formation was also confirmed by LCMS.

[2] = ^225Ac(III) chelation / labeling, iTLC-SG analysis; conditions: pH ~6.5; for free ^225Ac by iTLC-SG before DTPA challenge / free Ac-225 at the solvent front of the iTLC-SG: free chelator; for free ^225Ac by iTLC-SG before DTPA challenge: high ^225Ac/chelator ratio (50 μCi), room temperature 1.5-2 hr; for free Ac-225 at the solvent front of the iTLC-SG: low ^225Ac/chelator ratio (30 μCi), room temperature 1-2 hr; for chelated Ac-225 (iTLC): free chelator (2 mg/mL 3 μL; ethoxylmethyl isomers 1 mg/mL 1 μL), 30 μCi ^225Ac, 37° C. 2 h
[3] = DTPA challenge of ^225Ac complexes, iTLC-SG; conditions: 30 min; for free ^225Ac by iTLC-SG after DTPA challenge / free Ac-225 at the solvent front of the iTLC-SG after DTPA challenge: free chelator, 10 mM DTPA; for free ^225Ac by iTLC-SG after DTPA challenge: high ^225Ac/chelator ratio (50 μCi); for free Ac-225 at the solvent front of the iTLC-SG after DTPA challenge: low ^225Ac/chelator ratio; for chelated Ac-225 (iTLC) after DTPA: reaction mixture with 10 mM DTPA (pH 6.5)
Experimental: DTPA challenge: 0.5 μL of the reaction mixture was mixed with 15 μL of 10 mM DTPA solution and the mixture was incubated for 30 min.
DTPA challenge: 10 μL of fraction #3 collected after PD-10 column was mixed with 15 μL of 10 mM DTPA solution (pH 6.5), and incubated for 30 min.
0.5 μL of reaction mixture was mixed with 15 μL 10 mM DTPA (pH 6.5) and incubated for 30 min.

SMILES | chelated Ac-225 (iTLC) [2] [%] | chelated Ac-225 (iTLC) after DTPA [3] [%] | also measured
O=C(O)c1cccc(CN2CCOCCOCCN(C(c3ccccc3)c3cccc(C(=O)O)n3)CCOCCOCC2)n1 (centres unmarked) [H2bp18c6-benzyl-phenyl] |  |  | chelation with La^3+ (shift in HPLC peak retention time) [1]: rapid and stoichiometric chelation; free ^225Ac by iTLC-SG before DTPA challenge [2]: No free ^225Ac was detected; free Ac-225 at the solvent front of the iTLC-SG [2]: No free ^225Ac ion was detected; also recorded: No radioactivity was observed at the solvent front; free ^225Ac by iTLC-SG after DTPA challenge [3]: No free ^225Ac was detected; free Ac-225 at the solvent front of the iTLC-SG after DTPA challenge [3]: No free ^225Ac was detected after DTPA challenge
CCOC[C@H]1COCCN(Cc2cccc(C(=O)O)n2)CCOCCOCCN(Cc2cccc(C(=O)O)n2)CCO1 (single isomer, unassigned) [H2bp18c6-off Macrocycle-ethoxylmethyl isomer I] | 99 | 99 | 
CC(C)CCC(c1cccc(C(=O)O)n1)N1CCOCCOCCN(Cc2cccc(C(=O)O)n2)CCOCCOCC1 (centres unmarked) |  |  | chelation with La^3+ (shift in HPLC peak retention time) [1]: rapid chelation; chelation with La^3+ (shift in HPLC peak retention time) ([1]; listed as isopentane-H2bp18c6): rapid and stoichiometric chelation; free ^225Ac by iTLC-SG before DTPA challenge [2]: No free ^225Ac was detected; free Ac-225 at the solvent front of the iTLC-SG [2]: No radioactivity was observed at the solvent front; free ^225Ac by iTLC-SG after DTPA challenge [3]: No free ^225Ac was detected; free Ac-225 at the solvent front of the iTLC-SG after DTPA challenge [3]: No radioactivity was observed at the solvent front
O=C(NCCC(=O)N1Cc2ccccc2C#Cc2ccccc21)c1ccc(C(c2cccc(C(=O)O)n2)N2CCOCCOCCN(Cc3cccc(C(=O)O)n3)CCOCCOCC2)cc1 (centres unmarked) [H2bp18c6-benzyl-phenyl-DBCO] |  |  | free Ac-225 at the solvent front of the iTLC-SG [2]: No radioactivity activity was observed at the solvent front; free Ac-225 at the solvent front of the iTLC-SG after DTPA challenge [3]: No radioactivity was detected at the solvent front
CCOC[C@@H]1COCCN(Cc2cccc(C(=O)O)n2)CCOCCOCCN(Cc2cccc(C(=O)O)n2)CCO1 (single isomer, unassigned) [H2bp18c6-off Macrocycle-ethoxylmethyl isomer II] | 99 | 99 | 

Further lines, with some results ahead:

chelated Ac-225 (iTLC) [2] [%] | chelated Ac-225 (iTLC) after DTPA [3] [%] | SMILES | also measured
99 | 99 | O=C(O)c1cccc(CN2CCOCCOCCN(Cc3cccc(C(=O)O)n3)CCO[C@@H]3CCC[C@@H]3OCC2)n1 | 
99 | 99 | O=C(O)c1cccc(CN2CCOCCOCCN(Cc3cccc(C(=O)O)n3)CCO[C@@H](CO)COCC2)n1 (single isomer, unassigned) [H2bp18c6-off Macrocycle-hydroxylmethyl isomer I] | 
99 | 99 | O=C(O)c1cccc(CN2CCOCCOCCN(Cc3cccc(C(=O)O)n3)CCO[C@@H]3CCCC[C@@H]3OCC2)n1 [H2bp18c6-cis-cyclohexyl-fused Macrocycle] | 
99 | 99 | O=C(O)c1cccc(CN2CCOCCOCCN(Cc3cccc(C(=O)O)n3)CCO[C@@H]3CCCC[C@H]3OCC2)n1 | 
99 | 99 | O=C(O)c1cccc(CN2CCOCCOCCN(Cc3cccc(C(=O)O)n3)CCO[C@H](CO)COCC2)n1 (single isomer, unassigned) [H2bp18c6-off Macrocycle-hydroxylmethyl isomer II] | 
99 | 99 | O=C(O)c1cccc(CN2CCOCCOCCN(Cc3cccc(C(=O)O)n3)CCO[C@@H]3CCC[C@H]3OCC2)n1 | 

Reference: patent US12453785B2, “Macrocyclic chelators and methods of use thereof” (JANSSEN BIOTECH, INC., priority 2019, dated 2025)
